Laboratory results reported in ChEMBL document CHEMBL1201862, “PubChem BioAssay data set” (2004).
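48-hour exposure; five concentrations; linearly interpolated endpoints. The concentration for 50% growth inhibition is given as GI50.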 Active and inactive are the calls of the source. Rule as the data show it: active = GI50 up to about 1.1 µM and inactive = higher.

Key:
Test in all cases: NCI-60 cell line screen, 48 h
SNB-19 = system: SNB-19
NCI-H226 = system: NCI-H226
SNB-78 = system: SNB-78
M19-MEL = system: M19-MEL
RPMI-8226 = system: RPMI-8226
UACC-62 = system: UACC-62
HCC 2998 = system: HCC 2998
K562 = system: K562
OVCAR-8 = system: OVCAR-8
SK-OV-3 = system: SK-OV-3
OVCAR-4 = system: OVCAR-4
NCI-H460 = system: NCI-H460
HOP-18 = system: HOP-18
HOP-92 = system: HOP-92
HL-60 = system: HL-60
OVCAR-3 = system: OVCAR-3
SF-268 = system: SF-268
SK-MEL-28 = system: SK-MEL-28
RXF 631 = system: RXF 631
SF-539 = system: SF-539
COLO 205 = system: COLO 205
RXF 393 = system: RXF 393
SK-MEL-5 = system: SK-MEL-5
HCT-15 = system: HCT-15
NCI-H23 = system: NCI-H23
TK-10 = system: TK-10
M14 = system: M14
DMS-273 = system: DMS-273
DLD-1 = system: DLD-1
DMS-114 = system: DMS-114
HT-29 = system: HT-29
UO-31 = system: UO-31
KM-20L2 = system: KM-20L2
MOLT-4 = system: MOLT-4
786-0 = system: 786-0
Malme-3M = system: Malme-3M
KM12 = system: KM12
OVCAR-5 = system: OVCAR-5
A549 = system: A549
LOX IMVI = system: LOX IMVI
ACHN = system: ACHN
SN12C = system: SN12C
A498 = system: A498
HOP-62 = system: HOP-62
SF-295 = system: SF-295
SNB-75 = system: SNB-75
EKVX = system: EKVX
HCT-116 = system: HCT-116
UACC-257 = system: UACC-257
U-251 = system: U-251
LXFL 529 = system: LXFL 529
NCI-H522 = system: NCI-H522
CCRF-CEM = system: CCRF-CEM
SW-620 = system: SW-620
IGROV-1 = system: IGROV-1
SK-MEL-2 = system: SK-MEL-2
CAKI-1 = system: CAKI-1

Measured: GI50

COc1ccc(-c2cc(-c3ccco3)c(C#N)c(=O)[nH]2)cc1
57.7 µM: HCT-15
inactive: SNB-19 > 100 µM | NCI-H226 > 100 µM | SNB-78 > 100 µM | M19-MEL 87.9 µM | RPMI-8226 > 100 µM | UACC-62 > 100 µM | HCC 2998 > 100 µM | K562 > 100 µM | OVCAR-8 36.8 µM | SK-OV-3 23.2 µM | OVCAR-4 29.2 µM | NCI-H460 35.1 µM | HOP-18 15.9 µM | HOP-92 > 100 µM | HL-60 > 100 µM | OVCAR-3 22.7 µM | SF-268 36.7 µM | SK-MEL-28 > 100 µM | RXF 631 > 100 µM | SF-539 15.8 µM | COLO 205 > 100 µM | RXF 393 45.1 µM | SK-MEL-5 > 10 µM | NCI-H23 86.7 µM | TK-10 50.8 µM | M14 > 100 µM | DMS-273 31 µM | DLD-1 > 100 µM | DMS-114 79.6 µM | HT-29 > 100 µM | UO-31 > 100 µM | KM-20L2 > 100 µM | MOLT-4 > 100 µM | 786-0 91 µM | Malme-3M 29.8 µM | KM12 > 100 µM | OVCAR-5 > 100 µM | A549 91.4 µM | LOX IMVI > 100 µM | ACHN 87.5 µM | SN12C 32.1 µM | A498 28.2 µM | HOP-62 15.7 µM | SF-295 65 µM | SNB-75 18 µM | EKVX > 100 µM | HCT-116 40.3 µM | UACC-257 77.4 µM | U-251 15.5 µM | LXFL 529 44 µM | NCI-H522 20.3 µM | CCRF-CEM > 100 µM | SW-620 > 100 µM | IGROV-1 > 100 µM

CN(C)CCNC(=O)c1cccc2c1nc(-c1ccccc1)c1ccccc12
active: NCI-H460 0.4 µM | RXF 631 1.05 µM | MOLT-4 0.323 µM | A549 1.07 µM | A498 0.91 µM
2.68 µM: HCT-15
inactive: SNB-19 11.3 µM | NCI-H226 2.83 µM | SNB-78 10.4 µM | SK-MEL-2 11.1 µM | M19-MEL 5.2 µM | UACC-62 11.9 µM | HCC 2998 3.82 µM | K562 2.17 µM | OVCAR-8 4.43 µM | SK-OV-3 6.24 µM | OVCAR-4 5.45 µM | HOP-18 14.7 µM | HOP-92 2.83 µM | HL-60 1.26 µM | OVCAR-3 8.09 µM | SF-268 5.79 µM | SK-MEL-28 9.1 µM | SF-539 2.19 µM | COLO 205 3.48 µM | RXF 393 2.58 µM | SK-MEL-5 2.13 µM | NCI-H23 6.65 µM | TK-10 3.93 µM | M14 2.07 µM | DMS-273 2.91 µM | DLD-1 2.33 µM | HT-29 3.35 µM | UO-31 1.82 µM | 786-0 3.97 µM | KM12 6.19 µM | OVCAR-5 4.66 µM | LOX IMVI 1.47 µM | ACHN 2.88 µM | SN12C 3.01 µM | HOP-62 4.27 µM | SF-295 4.67 µM | SNB-75 6.76 µM | EKVX 12.9 µM | HCT-116 2.69 µM | UACC-257 1.73 µM | U-251 5 µM | CAKI-1 3.74 µM | CCRF-CEM 1.61 µM | SW-620 2.4 µM | IGROV-1 3.16 µM
